Measurements as given in PMC7949159, “Optimized binding of substituted quinoline ALLINIs within the HIV-1 integrase oligomer” (The Journal of Biological Chemistry, 2021).
Where two headings read alike, the source gives them in different places.

Key:
[1] = biological target: T1, HIV-1 IN (full-length, His-tagged and FLAG-tagged) (Human immunodeficiency virus type 1 group M subtype B, UniProt P12497); test: HTRF-based IN multimerization assay; type: biochemical; details: average with SD of three independent experiments, read-out: In vitro IN multimerization EC50
T1 construct: recombinant proteins 6xHis-tagged and FLAG-tagged full-length INs were expressed in E. coli; made in house; host or cells: E. coli
Experimental: For biochemical studies, recombinant proteins 6xHis-tagged and FLAG-tagged full-length INs were expressed in E. coli and purified by column chromatography as previously described ([39]). The HTRF-based assay used to monitor inhibitor-induced aberrant multimerization of IN was performed as previously reported ([15], [19]). Briefly, two separate preparations of His-tagged and FLAG-tagged IN proteins were mixed in presence of increasing concentration of the test compounds and incubated for 2.5 h at room temperature. Anti-His6-XL665 and anti-FLAG-EuCryptate antibodies (Cisbio, Inc) were then added to the reaction and incubated at room temperature for 3 h.

[2] = biological target: T2, HIV-1 IN-CTD / full-length IN complex (Human immunodeficiency virus type 1 group M subtype B, UniProt P12497); test: HTRF-based CTD binding assay (His-tagged CTD-IN with FLAG-tagged full-length IN); type: biochemical; details: 200 nM of ALLINI
T2 construct: His-tagged CTD-IN and FLAG-tagged full-length IN proteins were mixed; made in house; host or cells: E. coli (stated for the full-length INs)
Source text: To detect in isolation the specific contribution of the IN-CTD to the ALLINI-induced IN multimer complex formation, we have modified our published HTRF-based assay (Fig. 3, A and B). In this new analytical assay, anti-His6-XL665 and anti-FLAG-EuCryptate antibodies allow the detection of fluorescence energy transfer only when FLAG-tagged full-length IN protein tightly interacts with a His-tagged IN-CTD construct. Mixing of the proteins and without compound addition generated a small HTRF signal (Fig. 3C, dimethyl sulfoxide [DMSO]) indicating a weak interaction between the full-length IN and the IN-CTD construct. Strikingly, the addition of ALLINI to the assay promoted a significant increase of HTRF signals proportional to the IN multimerization properties of the compound.
Figure 3 C-terminal domain (CTD) contribution to the ALLINI-induced IN multimer formation.A, schematic of the standard HTRF-based IN multimerization assay. […] C, HTRF signal intensities recorded after the addition of 200 nM of ALLINI to a mixture of Flag tagged full-length IN and His-tagged CTD domain proteins as described in the Methods section. ALLINI, allosteric IN inhibitors; HTRF, homogeneous time resolved fluorescence; IN, integrase.
The CTD-IN protein was generated and purified using a published method ([40]). […] The HTRF binding signal between proteins was recorded using a PerkinElmer EnSpire multimode plate reader.

HIV-1 = test system: HIV-1
Experimental: For early stage experiments, viral infectivity of target cells was measured in the presence of increasing concentrations of inhibitors. For late stage, producer cells were transfected in the presence of increasing concentrations of inhibitors, cell-free virions were harvested at 48 h, and the amounts of viral particles produced were measured by p24 concentration essay. Subsequently, the infectivity of these progeny virions was examined without any additional inhibitor being added to the target cells. […] For full viral cycle experiments, the same inhibitor concentrations were added in the producer cells and the target cells ([31]).
The EC50 values were determined in single replication cycle as described previously ([17]). […] The virus supernatants were collected 24 h after drug treatment, and p24 concentrations were determined by HIV-1 Gag p24 ELISA (ZeptoMetrix) following manufacturer’s protocol. The target cells were then infected with HIV-1 virions equivalent to 4 ng of HIV-1 p24, in the absence or presence of indicated concentrations of drugs. To measure EC50 values during the early replication stage, DMSO or the inhibitor was added to the target cells 60 min before infection. The cells were cultured for 48 h, and the cell extracts were prepared using reporter lysis buffer (Promega). Luciferase activity was determined using a commercially available kit (Promega). The cytotoxicity assays were performed on noninfected cells using the commercially available CyQUANT XTT Cell Viability Assay (Invitrogen, Inc) by following the manufacturer protocol. The dose–response curves were fitted with a sigmoidal dose–response equation with Hill slope to determine the compound IC50 and CC50 using Origin software (v9.7).

noninfected cells = test: CyQUANT XTT Cell Viability cytotoxicity assay; type: cell-based
[3] = test system: HIV-1 virions (viral core density); test: Sucrose density gradient fractionation of detergent-lysed virions (p24 distribution); type: cell-based; details: 1 μM during viral production, versus DMSO; fractions 16–22
Source text: We and others have previously observed how ALLINIs interfere with proper virus particle maturation and yield noninfectious particles with eccentrically positioned RNPs. This mislocalization of the RNP to a position located between the low density empty capsid (CA) core and the particle membrane in mature virions has been observed using electron microscopy ([17], [31], [32]). The buoyant sucrose gradient technique that measure the relative density of the viral core of mature virions has also been validated as an effective approach to characterize this mislocalization of the RNP ([17], [33], [34]). […] The CA core density was then detected by measuring the HIV-1 CA (p24) content of each sucrose fraction.
For sucrose density gradient fractionation ([17], [33], [34]), cell-free virions produced from HEK293T cells transfected with pNL4-3 in the absence or presence of indicated concentration of ALLINI were concentrated by ultracentrifugation over a 25% sucrose cushion, pelleted virions were lysed with 0.5% Triton X-100 and were ultracentrifuged through a 20% to 70% (wt/vol) linear sucrose density gradient at 28,500 rpm for 16 h at 4C in SW40 rotor (Beckman). […] The relative distribution of HIV-1 capsid was determined by quantifying the Western blot p24 signal. […]

Structure (SMILES)	EC50 [1]	HTRF signal intensity, CTD / full-length IN complex [2]	Fold improvement of overall antiviral IC50 (HIV-1)	Fold increase of PSI (HIV-1)	PSI (phase specificity index) (HIV-1)	IC50 (HIV-1; read-out: Early IC50)	IC50 (HIV-1; read-out: Full IC50)	IC50 (HIV-1; read-out: Late IC50)	CC50 (noninfected cells)	Effect on HIV-1 capsid (p24) distribution in sucrose density gradient fractions [3]
COc1ccccc1-c1ccc2c(-c3ccc4c(c3)OCCO4)c(C(OC(C)(C)C)C(=O)O)c(C)nc2c1 (stereo not shown) [JDH-2110]	40 ± 10 nM	higher HTRF than NGJ9002	about 30 fold	7 fold	465	9300 ± 500 nM	30 ± 10 nM	20 ± 10 nM	> 100000 nM	reduction of CA signal in high-density fractions
Cc1nc2ccccc2c(-c2ccc3c(c2)OCCO3)c1C(OC(C)(C)C)C(=O)O (stereo not shown) [NGJ-9002]	110 ± 10 nM				64	42000 ± 3000 nM	830 ± 50 nM	660 ± 30 nM	> 100000 nM	
